Target: T1, IL-17A/A (Homo sapiens, UniProt Q16552)
T1 construct: purchased Genscript Z03228
T1 sequence (Q16552 24-155): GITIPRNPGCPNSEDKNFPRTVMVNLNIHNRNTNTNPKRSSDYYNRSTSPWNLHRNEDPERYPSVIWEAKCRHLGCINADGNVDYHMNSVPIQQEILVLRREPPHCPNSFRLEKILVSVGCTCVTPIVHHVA
Test: HEK-Blue IL-17A/A inhibition assay (SEAP reporter)
Type: cell-based
Conditions: HEK-Blue cells (HEK 293 expressing IL-17RA, IL-17RC, Act1); IL-17A/A stimulation; 20 hours; SEAP read at A630; 4-parameter fit
Outline: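 IC50 from a 4-parameter fit of SEAP signal (Quanti-Blue, A630) after 20 h co-incubation of compound and IL-17A/A. Reporter line: HEK 293 expressing IL-17RA, IL-17RC and Act1 with NFκB-SEAP; compound top final 10, 1 or 0.3 uM, DMSO 0.1% final.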

IC50 [nM]	Structure (SMILES)
> 1000	CC(C)n1nccc1C(=O)N[C@H](C(=O)Nc1ccc([C@H](C)C(=O)NC2(C(F)(F)F)CN(C(=O)OC(C)(C)C)C2)cc1F)C(C1CC1)C1CC1 [Compound 46, tert-butyl 3-((S)-2-(4-((S)-3,3-dicyclopropyl-2-(1-isopropyl-1H-pyrazole-5-carboxamido)propanamido)-3-fluorophenyl)propanamido)-3-(trifluoromethyl)azetidine-1-carboxylate]
< 100	CC(C)n1nccc1C(=O)N[C@H](C(=O)Nc1ccc([C@H](C)C(=O)N2CC(F)CC2C(F)(F)F)cc1F)C(C1CC1)C1CC1 (stereo partly drawn) [Compound 47, N-((2S)-1,1-dicyclopropyl-3-((2-fluoro-4-((2S)-1-(4-fluoro-2-(trifluoromethyl)pyrrolidin-1-yl)-1-oxopropan-2-yl)phenyl)amino)-3-oxopropan-2-yl)-1-isopropyl-1H-pyrazole-5-carboxamide]
100 to 1000	CC(C)n1nccc1C(=O)N[C@H](C(=O)Nc1ccc([C@H](C)C(=O)NCC(F)(F)F)cc1F)C1CCC(F)(F)CC1 [Compound 50, N-((S)-1-(4,4-difluorocyclohexyl)-2-((2-fluoro-4-((S)-1-oxo-1-((2,2,2-trifluoroethyl)amino)propan-2-yl)phenyl)amino)-2-oxoethyl)-1-isopropyl-1H-pyrazole-5-carboxamide]
100 to 1000	CC(C)n1nccc1C(=O)N[C@H](C(=O)Nc1ccc([C@H](C)C(=O)N(C)CC(F)(F)F)cc1F)C1CCC(F)(F)CC1 [Compound 51, N-((S)-1-(4,4-difluorocyclohexyl)-2-((2-fluoro-4-((S)-1-(methyl(2,2,2-trifluoroethyl)amino)-1-oxopropan-2-yl)phenyl)amino)-2-oxoethyl)-1-isopropyl-1H-pyrazole-5-carboxamide]
> 1000	CC(C)n1nccc1C(=O)N[C@H](C(=O)Nc1ccc([C@H](C)C(=O)NC2(C(F)(F)F)CNC2)cc1F)C(C1CC1)C1CC1 [Compound 52, N-((S)-1.1-dicyclopropyl-3-((2-fluoro-4-((S)-1-oxo-1-((3-(trifluoromethyl)azetidin-3-yl)amino)propan-2-yl)phenyl)amino)-3-oxopropan-2-yl)-1-isopropyl-1H-pyrazole-5-carboxamide]
> 1000	CC(C)n1nccc1C(=O)N[C@H](C(=O)Nc1ccc([C@H](C)C(=O)N[C@H](C)C(F)(F)F)cc1F)C(C1CC1)C1CC1 [Compound 54, N-((S)-1,1-dicyclopropyl-3-((2-fluoro-4-((S)-1-oxo-1-(((R)-1,1,1-trifluoropropan-2-yl)amino)propan-2-yl)phenyl)amino)-3-oxopropan-2-yl)-1-isopropyl-1H-pyrazole-5-carboxamide]
100 to 1000	CC(C)n1nccc1C(=O)N[C@H](C(=O)Nc1ccc([C@H](C)C(=O)N[C@@H](C)C(F)(F)F)cc1F)C(C1CC1)C1CC1 [Compound 55, N-((S)-1,1-dicyclopropyl-3-((2-fluoro-4-((S)-1-oxo-1-(((S)-1,1,1-trifluoropropan-2-yl)amino)propan-2-yl)phenyl)amino)-3-oxopropan-2-yl)-1-isopropyl-1H-pyrazole-5-carboxamide]
100 to 1000	CC(C)n1nccc1C(=O)N[C@H](C(=O)Nc1ccc([C@H](C)C(=O)N2CCOc3ccccc3C2C(F)(F)F)cc1F)C(C1CC1)C1CC1 (stereo partly drawn) [Compound 56, N-((2S)-1,1-dicyclopropyl-3-((2-fluoro-4-((2S)-1-oxo-1-(5-(trifluoromethyl)-2,3-dihydrobenzo[f][1,4]oxazepin-4(5H)-yl)propan-2-yl)phenyl)amino)-3-oxopropan-2-yl)-1-isopropyl-1H-pyrazole-5-carboxamide]
100 to 1000	CC(C)n1nccc1C(=O)N[C@H](C(=O)Nc1ccc([C@H](C)C(=O)NCC(C)(F)F)cc1F)C(C1CC1)C1CC1 [Compound 57, N-((S)-1,1-dicyclopropyl-3-((4-((S)-1-((2,2-difluoropropyl)amino)-1-oxopropan-2-yl)-2-fluorophenyl)amino)-3-oxopropan-2-yl)-1-isopropyl-1H-pyrazole-5-carboxamide]
100 to 1000	CC(C)n1nccc1C(=O)N[C@H](C(=O)Nc1ccc([C@H](C)C(=O)N2C[C@H](F)C[C@H]2C(F)(F)F)cc1F)C(C1CC1)C1CC1 [Compound 58, N-((S)-1,1-dicyclopropyl-3-((2-fluoro-4-((S)-1-((2S,4R)-4-fluoro-2-(trifluoromethyl)pyrrolidin-1-yl)-1-oxopropan-2-yl)phenyl)amino)-3-oxopropan-2-yl)-1-isopropyl-1H-pyrazole-5-carboxamide]
> 1000	CC(C)n1nccc1C(=O)N[C@H](C(=O)Nc1ccc([C@H](C)C(=O)N2C[C@@H](F)C[C@@H]2C(F)(F)F)cc1F)C(C1CC1)C1CC1 [Compound 59, N-((S)-1,1-dicyclopropyl-3-((2-fluoro-4-((S)-1-((2R^4S)-4-fluoro-2-(trifluoromethyl)pyrrolidin-1-yl)-1-oxopropan-2-yl)phenyl)amino)-3-oxopropan-2-yl)-1-isopropyl-1H-pyrazole-5-carboxamide]
< 100	CC(C)n1nccc1C(=O)N[C@H](C(=O)Nc1ccc([C@H](C)C(=O)N2C[C@@H](F)C[C@H]2C(F)(F)F)cc1F)C(C1CC1)C1CC1 [Compound 60, N-((S)-1,1-dicyclopropyl-3-((2-fluoro-4-((S)-1-((2S,4S)-4-fluoro-2-(trifluoromethyl)pyrrolidin-1-yl)-1-oxopropan-2-yl)phenyl)amino)-3-oxopropan-2-yl)-1-isopropyl-1H-pyrazole-5-carboxamide]
< 100	CCOC(=O)CC(NC(=O)[C@@H](C)c1ccc(NC(=O)[C@@H](NC(=O)c2ccnn2C(C)C)C(C2CC2)C2CC2)c(F)c1)C(F)(F)F (stereo partly drawn) [Compound 61, ethyl 3-((S)-2-(4-((S)-3,3-dicyclopropyl-2-(1-isopropyl-1H-pyrazole-5-carboxamido)propanamido)-3-fluorophenyl)propanamido)-4,4,4-trifluorobutanoate]
100 to 1000	COC(=O)C(NC(=O)[C@@H](C)c1ccc(NC(=O)[C@@H](NC(=O)c2ccnn2C(C)C)C(C2CC2)C2CC2)c(F)c1)C(F)(F)F (stereo partly shown) [Compound 62]
< 100	CC(C)n1nccc1C(=O)N[C@H](C(=O)Nc1ccc([C@H](C)C(=O)NC(C(N)=O)C(F)(F)F)cc1F)C(C1CC1)C1CC1 (stereo partly drawn) [Compound 63, N-((2S)-1-((4-((2S)-1-((3-amino-1,1-trifluoro-3-oxopropan-2-yl)amino)-1-oxopropan-2-yl)-2-fluorophenyl)amino)-3,3-dicyclopropyl-1-oxopropan-2-yl)-1-isopropyl-1H-pyrazole-5-carboxamide]
100 to 1000	CC(C)n1nccc1C(=O)N[C@H](C(=O)Nc1ccc([C@H](C)C(=O)N2CC[C@H]2C(F)(F)F)cc1F)C(C1CC1)C1CC1 [Compound 64, N-((S)-1,1-dicyclopropyl-3-((2-fluoro-4-((S)-1-oxo-1-((S)-2-(trifluoromethyl)azetidin-1-yl)propan-2-yl)phenyl)amino)-3-oxopropan-2-yl)-1-isopropyl-1H-pyrazole-5-carboxamide]
> 1000	CC(C)n1nccc1C(=O)N[C@H](C(=O)Nc1ccc([C@H](C)C(=O)NCC(F)(F)CO)cc1F)C(C1CC1)C1CC1 [Compound 65, N-((S)-1,1-dicyclopropyl-3-((4-((S)-1-((2,2-difluoro-3-hydroxypropyl)amino)-1-oxopropan-2-yl)-2-fluorophenyl)amino)-3-oxopropan-2-yl)-1-isopropyl-1H-pyrazole-5-carboxamide]
100 to 1000	CC(C)n1nccc1C(=O)N[C@H](C(=O)Nc1ccc([C@H](C)C(=O)NC(c2ccccc2)C(F)(F)F)cc1F)C(C1CC1)C1CC1 (stereo partly drawn) [Compound 66, N-((2S)-1,1-dicyclopropyl-3-((2-fluoro-4-((2S)-1-oxo-1-((2,2,2-trifluoro-1-phenylethyl)amino)propan-2-yl)phenyl)amino)-3-oxopropan-2-yl)-1-isopropyl-1H-pyrazole-5-carboxamide]
< 100	CC(C)n1nccc1C(=O)N[C@H](C(=O)Nc1ccc([C@H](C)C(=O)NC(C2CCOC2)C(F)(F)F)cc1F)C(C1CC1)C1CC1 (stereo partly drawn) [Compound 67, N-[(1S)-1-(dicyclopropylmethyl)-2-[2-fluoro-4-[(1S)-1-methyl-2-oxo-2-[(2,2,2-trifluoro-1-tetrahydrofuran-3-yl-ethyl)amino]ethyl]anilino]-2-oxo-ethyl]-2-isopropyl-pyrazole-3-carboxamide]
< 100	CCn1nccc1C(=O)N[C@H](C(=O)Nc1ccc([C@H](C)C(=O)N(C)CC(F)(F)F)cc1F)C(C1CC1)C1CC1 [Compound 68, N-((S)-1,1-dicyclopropyl-3-((2-fluoro-4-((S)-1-(methyl(2,2,2-trifluoroethyl)amino)-1-oxopropan-2-yl)phenyl)amino)-3-oxopropan-2-yl)-1-ethyl-1H-pyrazole-5-carboxamide]
< 100	CCn1nccc1C(=O)N[C@H](C(=O)Nc1ccc([C@H](C)C(=O)N(C)CC(F)(F)F)cc1F)[C@H]1CC[C@H](C)CC1 [Compound 71, -ethyl-N-((S)-2-((2-fluoro-4-((S)-1-(methyl(2,2,2-trifluoroethyl)amino)-1-oxopropan-2-yl)phenyl)amino)-1-((1r,4S)-4-methylcyclohexyl)-2-oxoethyl)-1H-pyrazole-5-carboxamide]
100 to 1000	CC[C@@H](c1ccc(Cl)cc1)[C@H](NC(=O)c1ccnn1CC)C(=O)Nc1ccc([C@H](C)C(=O)N(C)CC(F)(F)F)cc1F [Compound 72, N-((2S,3S)-3-(4-chlorophenyl)-1-((2-fluoro-4-((S)-1-(methyl(2,2,2-trifluoroethyl)amino)-1-oxopropan-2-yl)phenyl)amino)-1-oxopentan-2-yl)-1-ethyl-1H-pyrazole-5-carboxamide]
